We go through 1 compound from patent US5521156A, “Cyclic neurokinin A antagonists” (priority 1994, dated 1996).

Where a SMILES comes first, the peptide text is derived from it. [ ]: non-standard residue; d: D form.

Broadly, the IC50 is the concentration at which inhibition is half-maximal.

The target in one test is T1, NK-1 receptor (Cavia porcellus, UniProt P30547).
T1 construct: tissue Keystone Biologicals, Cleveland, OH; host or cells: guinea pig lung
In words: NK-1 receptor binding (125I-Bolton-Hunter substance P) in guinea pig lung membranes. The note with it: 0.1 nM 125I-Bolton-Hunter Lys-3 substance P, mean ± S.E.M. As to the method: (§1) Receptor binding assays were performed in crude tissue membranes. The NK-1 receptor binding affinity of proposed tachykinin antagonists was evaluated in guinea pig lungs (Keystone Biologicals, Cleveland, OH, kept frozen at -80° C. until use). Affinity for the NK-2 receptor was evaluated in HSKR-1 cells which are mouse 3T3 fibroblasts expressing the human jejunal NK-2 receptor. Tissues or cells were homogenized with a Polytron in 15 volumes of 50 mM Tris-HCl buffer (pH 7.4, 4° C.) containing 120 mM NaCl and 5 mM KCl and centrifuged at 48,000×g for 12 min. at 4° C. The pellet was resuspended in 15 volumes of 50 mM Tris-HCl buffer containing 10 mM EDTA and 300 mM KCl then set on ice for 30 min. The suspension was cetrifuged as above and the pellet washed by resuspension and cetrifugation two additional times in 50 mM Tris-HCl buffer (pH 7.4, 4° C.). The final pellet was resuspended in a concentration of 20 mg/ml in incubation buffer then kept at room temperature for at least 15 min prior to use. Receptor binding was initiated by addition of 250 μl membrane preparation (final protein concentration; lungs=286 μg/tube, HSKR-1 cells=100 μg/tube) in duplicate to 0.1 nM of the following radioligands: for NK-1 receptor assays, ^125 I-Bolton-Hunter Lys-3 labeled substance P (New England Nuclear, specific activity, 2200 Ci/mmol); for NK-2 receptor assays, ^125 iodohistidyl-1-neurokinin A (Amersham, specific activity, 2000 Ci/mmol) in a final volume of 500 μl of buffer containing 50 mM Tris-HCl (pH 7.4 at room temperature), 0.1% bovine serum albumin, 2 mM MnCl2, 40 μg/ml bacitracin, 4 μg/ml leupeptin and chymostatin, 1 μM thiorphan and various doses of the tachykinin antagonists. Incubations were performed at room temperature for 90 min (NK-1 receptor assays) or 2 hr (NK-2 receptor assays); binding was terminated by addition of 50 mM Tris-HCl buffer (pH 7.4, 4° C.) and filtration under vacuum through GF/B filters presoaked with 0.1% polyethyleneimine (NK-1 receptor assays) or 0.5% bovine serum albumin (NK-2 receptor assays). Nonspecific binding was defined as binding in the presence of 1 μM substance P (NK-1 receptor assays) or neurokinin A (NK-2 receptor assays) (Peptides International, Inc., Louisville, Ky.). Specific binding was calculated by subtracting nonspecific binding from total binding and corresponded to 70-90% of total binding. Data were analyzed and IC50 values generated by nonlinear regression using an iterative curve fitting program (GraphPAD Inplot, San Diego, Calif.). Protein was determined by the method of Lowry.

The target of test [1] is T2, human jejunal NK-2 receptor (Homo sapiens, UniProt P21452).
T2 construct: expressed in transfected cells; host or cells: HSKR-1 (mouse 3T3 fibroblasts)
T2 sequence (P21452 1-398): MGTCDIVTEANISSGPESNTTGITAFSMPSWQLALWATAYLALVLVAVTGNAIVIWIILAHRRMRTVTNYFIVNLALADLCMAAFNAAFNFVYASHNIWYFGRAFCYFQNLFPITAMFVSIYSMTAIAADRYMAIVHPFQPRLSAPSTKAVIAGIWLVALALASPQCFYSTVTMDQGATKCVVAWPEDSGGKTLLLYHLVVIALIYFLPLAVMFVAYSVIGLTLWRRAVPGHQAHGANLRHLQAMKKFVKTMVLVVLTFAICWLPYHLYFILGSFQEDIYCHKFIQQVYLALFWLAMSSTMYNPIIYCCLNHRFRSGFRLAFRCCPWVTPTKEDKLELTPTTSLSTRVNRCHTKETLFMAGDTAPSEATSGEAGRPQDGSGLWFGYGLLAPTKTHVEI
In words: NK-2 receptor binding (125I-neurokinin A) in HSKR-1 cell membranes. The note with it: HSKR-1 cells (mouse 3T3 fibroblasts expressing human jejunal NK-2 receptor); 0.1 nM 125I-iodohistidyl-1-neurokinin A; mean ± S.E.M. As to the method: as §1

The next test deals with mice. The note with it: mouse, in vivo. As for the experimental part: The analgesic potential of the compounds of this invention was measured using a modification of the method of Whittle (Br. J. Pharmacol. 22:2246, 1964). Groups of 5-10 male mice received an intrathecal injection of cyclo[Tyr-trp-Leu-Arg-Trp-Gly] SEQ. ID 6 (0.013-4μg) or ethanol/saline vehicle in a volume of 5 μl. After 5 minutes, mice received an intraperitoneal injection of 0.4 ml acetic acid (0.25% v/v). […] To calculate an ED50 (dose producing analgesia in 50% of the mice), four or more doses of compound were tested and the results subjected to quantal analysis with an appropriate computer program.

T1 sequence (P30547 whole entry): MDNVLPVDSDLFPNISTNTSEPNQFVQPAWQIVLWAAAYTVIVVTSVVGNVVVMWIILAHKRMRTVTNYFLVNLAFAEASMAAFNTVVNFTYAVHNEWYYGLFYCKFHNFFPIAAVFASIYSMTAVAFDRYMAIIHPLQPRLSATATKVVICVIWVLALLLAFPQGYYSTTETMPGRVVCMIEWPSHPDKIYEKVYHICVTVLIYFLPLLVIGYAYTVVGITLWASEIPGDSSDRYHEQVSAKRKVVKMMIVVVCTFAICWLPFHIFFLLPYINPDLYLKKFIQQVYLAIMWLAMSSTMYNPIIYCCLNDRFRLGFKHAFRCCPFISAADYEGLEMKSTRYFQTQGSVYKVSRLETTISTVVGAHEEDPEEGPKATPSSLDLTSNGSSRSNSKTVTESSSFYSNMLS

Consider `CC(C)C[C@@H]1NC(=O)[C@@H](Cc2c[nH]c3ccccc23)NC(=O)[C@H](Cc2ccc(O)cc2)NC(=O)CNC(=O)[C@H](Cc2c[nH]c3ccccc23)NC(=O)[C@H](CCCNC(=N)N)NC1=O` [cyclo[Tyr--trp--Leu--Arg--Trp--Gly], cyclo[Tyr-trp-Leu-Arg-Trp-Gly]] (cyclo(GY[dW]LRW)), for which the concentration for half-maximal inhibition (IC50) was found to be 6190 ± 277 nM on NK-1 receptor and 6.79 ± 0.69 nM in test [1]. Besides, in the test on mice, the “ED50 (dose producing analgesia in 50% of the mice)” value was determined as 0.18 µg.
